Literature values, collected in US20090311335A1, “COMBINATION OF A TRIPTAN AND AN NSAID” (priority 2008, published 2009).

Experiments:
[1] = single intravenous dose, range 5 to 60 mg
[2] = oral 75 mg or 150 mg, dual-release formulation

Structure (SMILES) | dose proportionality of pharmacokinetics [1] | solubility in methanol (methanol) | solubility in strong acids and bases (strong acids and bases) | solubility in water (water) | efficacy and tolerability in acute treatment of migraine attacks [2]
Cc1cnc(NC(=O)C2=C(O)c3ccccc3S(=O)(=O)N2C)s1 [Meloxicam, 4-hydroxy-2-methyl-N-(5-methyl-2-thiazolyl-)-2-H-1,2-benzothiazine-3-carboxamide 1,1-dioxide] | dose-proportional | very slightly soluble | higher solubility | practically insoluble | –
CC(C(=O)O)c1cccc(C(=O)c2ccccc2)c1 (centres unmarked) [ketoprofen] | – | – | – | – | effective and well-tolerated
